Measurements published in patent US20060063839A1, “Inhibitors of decrease in body temperature” (AJINOMOTO CO., INC., priority 2003, published 2006).

Experiments:
Type in all cases: in vivo, rat
[1] = tested on: rats under propofol anesthesia; assay: Measurement 1 of inhibiting effect of decrease in body temperature (rectal temperature, propofol anesthesia); conditions: for variation of body temperature in 3 hours after administering the anesthesia solution to that before administration: average; for inhibiting effect of decrease in body temperature (core temperature), in words: summary of Table 2
Procedure: A catheter was inserted into an external jugular vein of each of rats used in the evaluation in advance and a tip of the catheter was […] from their backs and locked with heparin. […] Then, 42 mL/kg thereof were continuously administered for 1 hour simultaneously with the start of administration of the anesthesia agent. Numbers of each group were set to 4 to 6. As for the administration of the anesthesia agent, 15 mg/kg thereof was intravenously administered through the catheter with bolus method at the beginning. […] As for the measurement of the body temperature, a former value was measured with a rectal thermometer before administering amino acid solutions, and values were measured at 30-minute intervals from the start of administration of the anesthesia agent until 3 hours after the end thereof. The measurement results were calculated as variations (value before administration-value after administration) of values in 3 hours after administering the anesthesia solution to those before administration and represented with average ± standard deviation. As for a statistical test, comparison between two groups with the normal saline solution was conducted using student t-test.

[2] = tested on: rats under propofol anesthesia; assay: Measurement 2 of inhibiting effect of decrease in body temperature: timing of valine administration (Groups A to D)
Procedure: Examination was conducted on whether differences of the inhibiting effect of decrease in body temperature of valine were shown depending on difference of timings of administration (following A to D). A catheter was inserted into an outward jugular vein of each of rats (7 to 8 weeks age) used in the evaluation in advance and a tip of the catheter was exserted from their backs and locked with heparin. The rats were recovered for a few days in the status quo. Valine was administered through the catheter with the following four methods:
A: for 2 hours before the start of administration of propofol
B: for 1 hour before the start of administration of propofol+1 hour after the start of administration of propofol
C: for 2 hours simultaneously with the start of administration of propofol
D: for 2 hours starting from 1 hour after the start of administration of propofol. 105 mg/kg of valine containing 10.5 mL/kg of 1% valine solution was administered to Group A eight times at 15-minute intervals. 105 mg/kg of valine containing 10.5 mL/kg of 1% valine solution was administered to Group B four times at 15-minute intervals and then continuously administered for 1 hour in 420 mg/kg/hr containing 42 mL/kg of 1% valine solution. Valine was continuously administered to Groups C and D for 2 hours in 420 mg/kg/hr containing 42 mL/kg of 1% valine solution. Each group (n=8 to 9) was administered the same total dose of valine. 15 mg/kg of a propofol anesthesia agent was administered through the catheter at the beginning and, after induction of anesthesia, it was continuously administered for 3 hours in 33.75 mg/kg/hr.

[3] = tested on: rats with surgical invasion under propofol anesthesia; assay: Effect on recovery from operative invasion (abdominal surgery under propofol anesthesia; body temperature and survival)
Procedure: A catheter was inserted into an external jugular vein of each of rats (7 weeks age) used in the evaluation in advance and a tip of the catheter was exserted from their backs and locked with heparin. The rats were recovered for a few days in the status quo. 105 mg/kg of valine (5.25 mL/kg of 2 W/V % of valine solution) was administered through the catheter to a valine-administered group four times at 15-minute intervals from 60 minutes before the start of administration of a propofol anesthesia agent. Then, valine was continuously administered for 5 hours in 420 mg/kg/hr (21 mL/kg of 2 W/V % valine solution) simultaneously with the start of administration of the propofol anesthesia agent. A normal saline solution was administered instead of a valine solution to an objective group. As for the administration of the propofol anesthesia agent, 15 mg/kg thereof was intravenously administered through the catheter with bolus method at the beginning. Soon after that, the agent was started to be continuously administered in 45 mg/kg/hr. 1 hour later, the administration speed was changed to 33.75 mg/kg/hr and continuous administration was conducted for 5 hours. Numbers of each group were set to 8. As for surgical invasion, abdominals of the rats were opened after the bolus anesthesia, their appendixes were exteriorized from their abdominal cavities and exposed in the air for 30 minutes. Then, their appendixes were put back to their abdominal cavities and sutured. As for the measurement of the body temperatures, a former value was measured with a rectal thermometer before administering the amino acids, and the value was measured again in 3 hours after the administration of propofol. The results were shown as the decreased temperature to Pre value. Survival rates were calculated from number of survivors in 24 hours from the start of the experiment.

[4] = tested on: peripheral mononuclear blood cells (PBMC) TNF-α production; assay: Effect on production of peripheral mononuclear blood cell TNF-α (PBMC taken after anesthesia and celiotomy, LPS stimulation, ELISA); conditions: PBMC incubated with 1 μg/mL LPS for 24 hours; valine 4 x 105 mg/kg then 420 mg/kg/hr for 1 hour; n=6
Procedure: (§1) The examination was practiced with three groups of a normal group, a valine-administered group and an objective group. A catheter was inserted into an external jugular vein of each of rats (7 to 8 weeks age) used in the evaluation in advance and a tip of the catheter was exserted from their backs and locked with heparin. The rats were recovered for a few days in the status quo. 105 mg/kg of valine (5.25 mL/kg of 2 W/V % of valine solution) was administered through the inserted catheter to the valine-administered group (n=6) four times at 15-minute intervals from 60 minutes before the start of administration of a propofol anesthesia agent. Then, valine was continuously administered for 1 hour in 420 mg/kg/hr (21 mL/kg of 2 W/V % valine solution) simultaneously with the start of administration of the propofol anesthesia agent. A normal saline solution was administered instead of valine to the objective group (n=6). 15 mg/kg of the propofol anesthesia agent was introduced to be administered through the catheter at the beginning, and continuously administered for 3 hours in 33.75 mg/kg/hr. The celiotomy invasion was conducted by opening the abodominals of the rats simultaneously with the administration of the anesthesia, exteriorizing their appendixes from the abdominal cavities, putting them back again at once and suturing the abdominals. The catheter was not inserted to the normal group. […]

[5] = tested on: rats with celiotomy invasion under propofol anesthesia; assay: Body temperature at the end of anesthesia in the celiotomy invasion experiment; conditions: valine-administered group, n=6
Procedure: as §1

[6] = 0.1% solution i.v. (4 x 10.5 mL/kg before, 42 mL/kg during 1 h of propofol)
[7] = 1% solution i.v. (4 x 10.5 mL/kg before, 42 mL/kg during 1 h of propofol)
[8] = Group A: valine for 2 hours before the start of propofol
[9] = Group B: valine for 1 hour before + 1 hour after the start of propofol
[10] = Group C: valine for 2 hours simultaneously with the start of propofol
[11] = Group D: valine for 2 hours starting 1 hour after the start of propofol

| Compound | variation of body temperature in 3 hours after administering the anesthesia solution to that before administration [1, 6] [°C] | variation of body temperature in 3 hours after administering the anesthesia solution to that before administration [1, 7] [°C] | inhibiting effect of decrease in body temperature (core temperature), in words [1] | decrease in body temperature from the time before administration until the end of the anesthesia [2, 8] [°C] | increase in body temperature from the end of administration of the anesthesia until 1 hour after [2, 8] [°C] | decrease in body temperature from the time before administration until the end of the anesthesia [2, 9] [°C] | increase in body temperature from the end of administration of the anesthesia until 1 hour after [2, 9] [°C] | decrease in body temperature from the time before administration until the end of the anesthesia [2, 10] [°C] | increase in body temperature from the end of administration of the anesthesia until 1 hour after [2, 10] [°C] | decrease in body temperature from the time before administration until the end of the anesthesia [2, 11] [°C] | increase in body temperature from the end of administration of the anesthesia until 1 hour after [2, 11] [°C] | inhibiting effect of decrease in body temperature, in words [2, 11] | inhibition of the decrease in body temperature versus the objective (saline) group ([3]; 3 hours after administration of propofol) [°C] | decrease in body temperature to Pre value ([3]; 3 hours after administration of propofol, valine 4 x 105 mg/kg then 420 mg/kg/hr for 5 hours, n=8) [°C] | survival rate after one day ([3]; 24 hours from the start of the experiment, n=8) [%] | production quantity of TNF-α [4] [pg/1×10^6 cells] | body temperature at the end of the administration of the anesthesia [5] [°C] |
| --- | --- | --- | --- | --- | --- | --- | --- | --- | --- | --- | --- | --- | --- | --- | --- | --- | --- |
| N[C@@H](CC(=O)O)C(=O)O [Asparatic Acid, asparatic acid] | −6.4 | −4.5 | inhibiting effect of decrease in body temperature (core temperature) was shown |  |  |  |  |  |  |  |  |  |  |  |  |  |  |
| N[C@@H](CS)C(=O)O [Cystein, cystein] | −6.3 | −4.8 | inhibiting effect of decrease in body temperature (core temperature) was shown |  |  |  |  |  |  |  |  |  |  |  |  |  |  |
| NCC(=O)O [Glycine, glycine] | −6.4 | −6.1 | inhibiting effect of decrease in body temperature (core temperature) was shown |  |  |  |  |  |  |  |  |  |  |  |  |  |  |
| CC(C)[C@H](N)C(=O)O [Valine, valine] | −4.8 | −4.0 | inhibiting effect of decrease in body temperature (core temperature) was shown | 6.1±1.9 | 1.1±0.5 | 4.3±1.2 | 2.0±1.2 | 6.1±1.4 | 2.0±0.9 | 6.9±1.0 | 1.0±0.6 | inhibiting effect of decrease in body temperature was not shown | 1.19 | 7.83±0.87 | 87.5 | 1389.8±415.8 | 31.2±0.8 |
